Reference: patent US9120749B2, “Quinoline derivatives and MELK inhibitors containing the same” (ONCOTHERAPY SCIENCE, INC., priority 2010, dated 2015)
Structures can show the parent of a compound that is named as a salt. Where two headings read alike, the source gives them in different places.

Tests used:
DU4475 cells = assay: Cell-based assay: anti-proliferative activity, Cell Counting Kit-8, 72 hours (DU4475); details: Homo sapiens, DU-4475
HT-1197 cells = assay: Cell-based assay: anti-proliferative activity, Cell Counting Kit-8, 72 hours (HT-1197, negative control without MELK expression); details: Homo sapiens, HT1197, 72 h, 72 hours
In short: (§1)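 Cellular growth is read by CCK-8 colorimetric kit 72 h after inhibitor addition to seeded cells, and IC50 values are derived from the resulting data; MELK protein levels in these lines are checked beforehand by immunoblotting whole crude lysate.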

T47D cells = assay: Cell-based assay: anti-proliferative activity, Cell Counting Kit-8, 72 hours (T47D); details: Homo sapiens, T47D, 72 h
In short: as §1

MELK = MELK (Homo sapiens, UniProt Q14680); assay: Kinase assay: MELK activity, phosphorylation of FITC-labeled histone H3 peptide measured by IMAP fluorescence polarization; type: biochemical; details: read-out: IC50 (μM) (kinase assay)
Chain of MELK (Q14680 whole entry, looked up): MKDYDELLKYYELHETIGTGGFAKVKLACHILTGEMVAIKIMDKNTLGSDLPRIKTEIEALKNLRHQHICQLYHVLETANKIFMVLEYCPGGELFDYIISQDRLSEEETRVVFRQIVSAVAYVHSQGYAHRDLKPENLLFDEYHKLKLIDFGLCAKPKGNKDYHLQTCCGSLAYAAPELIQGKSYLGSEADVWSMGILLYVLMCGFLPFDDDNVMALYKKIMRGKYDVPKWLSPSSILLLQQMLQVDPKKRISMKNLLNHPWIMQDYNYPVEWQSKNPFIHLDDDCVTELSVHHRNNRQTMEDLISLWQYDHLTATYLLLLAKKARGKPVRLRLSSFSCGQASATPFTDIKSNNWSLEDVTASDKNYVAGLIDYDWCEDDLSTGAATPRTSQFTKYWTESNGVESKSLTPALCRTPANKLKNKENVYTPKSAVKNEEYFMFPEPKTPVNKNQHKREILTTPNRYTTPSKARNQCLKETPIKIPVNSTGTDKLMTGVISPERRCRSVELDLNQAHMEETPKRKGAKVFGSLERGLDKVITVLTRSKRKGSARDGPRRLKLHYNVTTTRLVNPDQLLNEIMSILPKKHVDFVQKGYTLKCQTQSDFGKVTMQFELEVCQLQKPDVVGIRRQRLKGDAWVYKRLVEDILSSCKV
In short: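 FP readout: FITC-histone H3 peptide phosphorylation, read 0.5 h (RT) after stopping with 3x volume of IMAP progressive binding solution. Final DMSO 1%.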

A549 cells = assay: Cell-based assay: anti-proliferative activity, Cell Counting Kit-8, 72 hours (A549); details: Homo sapiens, A549, 72 h, 72 hours
In short: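 A549 cells were seeded in 96-well plates and exposed to candidate inhibitors for 72 hours. Cell growth was then measured with Cell Counting Kit-8, and IC50 values were calculated from the resulting growth data.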

22Rv1 cells = assay: Cell-based assay: anti-proliferative activity, Cell Counting Kit-8, 72 hours (22Rv1); details: Homo sapiens
DU4475 = assay: Cell-based assay: anti-proliferative activity, Cell Counting Kit-8, 72 hours (DU4475); details: Homo sapiens, DU-4475, DU4475 cells
[1] = HT1197 cells (negative control)
[2] = MELK kinase assay, IMAP fluorescence polarization, 50 micro-M ATP
[3] = HT1197 cells (negative control, no MELK expression)
[4] = 50 micro-M ATP, FITC-labeled histone H3 peptide substrate, IMAP fluorescence polarization

Row | Compound | IC50 (DU4475 cells) [µM] | IC50 (HT-1197 cells; [1]) [µM] | IC50 (T47D cells) [µM] | IC50 (MELK; [2]) [µM] | IC50 (A549 cells) [µM] | IC50 (22Rv1 cells) [µM] | IC50 (HT-1197 cells; [3]) [µM] | IC50 (DU4475) [µM] | IC50 (MELK) [µM] | IC50 (MELK; [4]) [µM]
1 | O=C(c1cnc2ccc(-c3cc(Cl)c(O)c(Cl)c3)cc2c1Nc1cncc(CCN2CCCC2)c1)C1CC1 [Example 881, cyclopropyl(6-(3,5-dichloro-4-hydroxyphenyl)-4-((5-(2-(pyrrolidin-1-yl)ethyl)pyridin-3-yl)amino)quinolin-3-yl)methanone] | 0.078 | 100 | 100 | 0.0064 | 0.15 |  |  |  |  | 
2 | CCN(CC)CCO[C@H]1CC[C@H](Nc2c(C(C)=O)cnc3ccc(-c4cc(Cl)c(O)c(Cl)c4)cc23)CC1 [Example 868, 1-(6-(3,5-dichloro-4-hydroxyphenyl)-4-((1R,4R)-4-(2-(diethylamino)ethoxy)cyclohexyl)amino)quinolin-3-yl)ethanone hydrochloride] | 0.29 | 2.8 | 0.14 |  | 0.28 | 0.3 |  |  |  | 
3 | CC(=O)c1cnc2ccc(-c3cc(F)c(O)c(Cl)c3)cc2c1Nc1ccc(S(=O)(=O)N2CCN(C)CC2)cc1 [Example 894, 1-(6-(3-chloro-5-fluoro-4-hydroxy-phenyl)-4-((4-((4-methylpiperazin-1-yl)sulfonyl)phenyl)amino)quinolin-3-yl)ethanone hydrochloride] | 100 | 63 | 1.5 | 0.039 | 100 |  |  |  |  | 
4 | CN(C)C1CCN(c2ccc(Nc3c(S(C)(=O)=O)cnc4ccc(-c5cc(Cl)c(O)c(Cl)c5)cc34)cn2)C1 (centres unmarked) [Example 906, 2,6-dichloro-4-(4-((6-(3-(dimethyl-amino)pyrrolidin-1-yl)pyridin-3-yl)amino)-3-(methylsulfonyl)quinolin-6-yl)phenol hydrochloride] | 0.66 | 9.3 | 1.3 |  | 2 | 2 |  |  |  | 
5 | O=C(c1cnc2ccc(-c3cc(Cl)c(O)c(Cl)c3)cc2c1Nc1cccc(CCN2CCCC2)c1)C1CCCC1 [Example 927, cyclopentyl(6-(3,5-dichloro-4-hydroxy-phenyl)-4-((3-(2-(pyrrolidin-1-yl)ethyl)phenyl)amino)quinolin-3-yl) methanone hydrochloride] | 0.48 | 12 | 1.3 |  | 0.71 | 0.78 |  |  |  | 
6 | CN(C)C[C@H]1CC[C@H](Nc2c(C(=O)C3CCCC3)cnc3ccc(-c4cc(Cl)c(O)c(Cl)c4)cc23)CC1 [Example 917, cyclopentyl(6-(3,5-dichloro-4-hydroxy-phenyl)-4-((1R,4R)-4-((dimethyl-amino)methyl)cyclohexyl)amino) quinolin-3-yl)methanone hydrochloride] | 0.19 | 3.3 | 0.7 |  | 0.68 | 0.91 |  |  |  | 
7 | CC(=O)c1cnc2ccc(-c3cc(Cl)c(O)c(Cl)c3)cc2c1Nc1ccc(S(=O)(=O)N2CCN(C)CC2)cc1 [Example 887, 1-(6-(3,5-dichloro-4-hydroxyphenyl)-4-((4-((4-methylpiperazin-1-yl)sulfonyl)phenyl)amino)quinolin-3-yl)ethanone hydrochloride] | 100 | 100 | 1.3 |  | 100 |  |  |  |  | 
8 | CN(C)C[C@H]1CC[C@H](Nc2c(C(=O)C(C)(C)C)cnc3ccc(-c4cc(Cl)c(O)c(Cl)c4)cc23)CC1 [Example 918, 1-(6-(3,5-dichloro-4-hydroxyphenyl)-4-((1R,4R)-4-((dimethylamino)methyl)cyclohexyl)amino)quinolin-3-yl)-2,2-dimethylpropan-1-one hydrochloride] | 3.2 | 10 | 3 |  | 5.5 | 6.6 |  |  |  | 
9 | CC(N)C(=O)N[C@H]1CC[C@H](Nc2c(C(=O)C(C)(C)C)cnc3ccc(-c4cc(Cl)c(O)c(Cl)c4)cc23)CC1 (stereo partly drawn) [Example 928, 2-amino-N-((1R,4R)-4-((6-(3,5-dichloro-4-hydroxyphenyl)-3-pivaloyl-quinolin-4-yl)amino)cyclohexyl) propanamide hydrochloride] | 1.1 | 8.1 | 1.4 |  | 4.1 | 2 |  |  |  | 
10 | CC(=O)c1cnc2cc(C)c(-c3cc(Cl)c(O)c(Cl)c3)cc2c1N[C@H]1CC[C@H](CN2CCC(N)C2)CC1 (stereo partly drawn) [Example 872, 1-(4-((1R,4R)-4-((3-aminopyrrolidin-1-yl)methyl)cyclohexyl)amino)-6-(3,5-dichloro-4-hydroxyphenyl)-7-methylquinolin-3-yl)ethanone hydrochloride] | 0.26 | 100 | 17 |  | 100 | 14 |  |  |  | 
11 | O=C(c1cnc2ccc(-c3cc(Cl)c(O)c(Cl)c3)cc2c1-c1ccc(OCCN2CCCC2)cc1)C1CC1 [Example 485, cyclopropyl(6-(3,5-dichloro-4-hydroxyphenyl)-4-(4-(2-(pyrrolidin-1-yl)ethoxy)phenyl)quinolin-3-yl)methanone] |  |  | 0.77 |  | 1.2 |  | 10 | 1.2 | 0.0056 | 
12 | CN1CCN(Cc2ccc(Nc3c(C(=O)C4CC4)cnc4ccc(-c5cc(Cl)c(O)c(Cl)c5)cc34)cc2)CC1 [Example 397, Cyclopropyl{6-(3,5-dichloro-4-hydroxyphenyl)-4-[4-((4-methylpiperazin-1-yl)methyl)phenylamino]quinolin-3-yl}methanone] |  |  | 0.33 |  | 0.15 |  | 5.2 | 0.088 |  | 0.0076
13 | CN(C)CC(=O)N1CC2CC1CN2c1c(C(=O)C2CC2)cnc2ccc(-c3ccc(O)c(Cl)c3)cc12 (centres unmarked) [Example 464] |  |  | 6.6 |  | 5.5 |  | 17 | 3.4 |  | 0.051
14 | CN1CCN(c2ncc(-c3c(C(=O)C4CC4)cnc4ccc(-c5cc(Cl)c(O)c(Cl)c5)cc34)cn2)CC1 [Example 479, cyclopropyl(6-(3,5-dichloro-4-hydroxyphenyl)-4-(2-(4-methylpiperazin-1-yl)pyrimidin-5-yl)quinolin-3-yl)methanone] |  |  | 0.92 |  | 1.7 |  | 7.9 | 1.7 | 0.04 | 
15 | COc1cc(-c2ccc3ncc([S+](C)[O-])c(N4CCC(CN(C)C)CC4)c3c2)cc(Cl)c1O (centres unmarked) [Example 468] |  |  | 0.93 |  | 1.4 |  | 9.2 | 0.93 | 0.0051 | 
16 | O=C(c1cnc2ccc(-c3cc(Cl)c(O)c(Cl)c3)cc2c1Nc1cnc(N2CCNCC2)nc1)C1CC1 [Example 497, cyclopropyl(6-(3,5-dichloro-4-hydroxyphenyl)-4-((2-(piperazin-1-yl)pyrimidin-5-yl)amino)quinolin-3-yl)methanone] |  |  | 0.052 |  | 0.12 |  | 0.97 | 0.056 | 0.0021 | 
17 | COc1cc(-c2ccc3ncc(C(=O)C4CC4)c(Nc4ccc(CN5CCN(C)CC5)cc4)c3c2)cc(Cl)c1O [Example 398, (6-(3-chloro-4-hydroxy-5-methoxyphenyl)-4-(4-((4-methylpiperazin-1-yl)methyl)phenylamino)quinolin-3-yl)(cyclopropyl)methanone] |  |  | 0.78 |  | 0.38 |  | 4.7 | 0.73 |  | 0.0084
18 | CN(C)Cc1ccc(Nc2c(S(C)(=O)=O)cnc3ccc(-c4cc(Cl)c(O)c(Cl)c4)cc23)cc1 [Example 400, 2,6-dichloro-4-(4-((4-((dimethylamino)methyl)phenyl)amino)-3-(methylsulfonyl)quinolin-6-yl)phenol] |  |  | 0.23 |  | 0.3 |  | 1.8 | 0.07 |  | 0.0034
19 | NCc1ccc(Nc2c(C(=O)C3CC3)cnc3ccc(-c4cc(F)c(O)c(Cl)c4)cc23)cc1 [Example 504, {4-[4-(Aminomethyl)phenylamino]-6-(3-chloro-5-fluoro-4-hydroxyphenyl)quinolin-3-yl}(cyclopropyl)methanone] |  |  | 0.084 |  | 0.081 |  | 0.71 | 0.019 | 0.0089 | 
20 | CC(=O)c1cnc2ccc(-c3cc(Cl)c(O)c(Cl)c3)cc2c1Nc1cncc(CCN2CCCC2)c1 [Example 873, 1-(6-(3,5-dichloro-4-hydroxyphenyl)-4-((5-(2-(pyrrolidin-1-yl)ethyl)pyridin-3-yl)amino)quinolin-3-yl)ethanone hydrochloride] | 0.17 | 100 | 100 | 0.0067 | 0.35 |  |  |  |  | 
21 | COc1cc(-c2ccc3ncc(C(=O)C(C)C)c(N[C@H]4CC[C@H](N)CC4)c3c2)cc(Cl)c1O [Example 502, 1-(4-((trans-4-aminocyclohexyl)amino)-6-(3-chloro-4-hydroxy-5-methoxyphenyl)quinolin-3-yl)-2-methylpropan-1-one] |  |  | 0.045 |  | 0.1 |  | 0.31 | 0.041 | 0.007 | 
